Bridge positions count the residues as written; N and C are the ends. Ends that are not written are not given here.
Key:
[1] = system: porcine iris ciliary body; settings: ref Heino et al., 1998; cited from earlier work
Excerpt: Similarly, substitution of Thr-6 ...

CGRP receptor [2] = biological target: T1, CGRP receptor (Homo sapiens, UniProt O60894+Q16602); experiment: cAMP production in Cos 7 cells transfected with CLR and RAMP1; type: cell-based; parameters: relative expression levels of the receptors (endogenous vs. overexpressed); endogenous in cells; host or cells: SK-N-MC cells (ECACC clone; ATCC clone for [Cys5]-CGRP); settings: read-out: Emax, % of that of CGRP, AlphaScreen
T1 sequence (Q16602 23-461): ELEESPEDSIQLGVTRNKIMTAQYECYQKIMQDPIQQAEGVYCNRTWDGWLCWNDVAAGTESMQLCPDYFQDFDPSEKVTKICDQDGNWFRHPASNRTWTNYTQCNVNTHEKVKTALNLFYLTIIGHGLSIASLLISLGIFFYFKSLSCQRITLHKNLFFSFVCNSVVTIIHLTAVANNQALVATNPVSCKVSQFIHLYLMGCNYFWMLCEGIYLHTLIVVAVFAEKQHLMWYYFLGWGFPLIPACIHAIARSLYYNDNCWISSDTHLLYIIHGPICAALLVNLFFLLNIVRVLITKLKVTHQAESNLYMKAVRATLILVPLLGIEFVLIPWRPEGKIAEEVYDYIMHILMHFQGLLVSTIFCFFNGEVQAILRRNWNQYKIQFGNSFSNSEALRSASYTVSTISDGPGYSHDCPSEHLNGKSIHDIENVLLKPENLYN
T1 sequence (O60894 27-148): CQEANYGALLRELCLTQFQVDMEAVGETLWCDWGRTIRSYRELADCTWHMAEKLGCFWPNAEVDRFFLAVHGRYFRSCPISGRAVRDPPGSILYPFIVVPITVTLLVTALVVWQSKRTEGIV
Procedure: (§1) SK-N-MC cells were grown in DMEM/F12 medium supplemented with 10% fetal calf serum as described previously (Poyner et al., [1998]). […] Production of cAMP in SK-N-MC cells for all analogues except [[…]]-hαCGRP was by a radioreceptor assay, as described previously (Poyner et al., [1998]). […] For [[…]]-hαCGRP, a different clone of SK-N-MC cells was used and cAMP production was measured via AlphaScreen (Perkin Elmer, Wellesley, MA, USA), as described previously ([…] et al., [2010]). This assay was also used to investigate the action of all derivatives at the AMY1(a) receptor and other experiments using Cos 7 cells. […] GraphPad Prism 5.00 or 6.00 (GraphPad Software Inc., San Diego, CA, USA) was used for data fitting. Concentration-response curves were fitted to a sigmoidal function with Hill slope constrained to unity to obtain pEC50 and maximum responses (Emax) values. Displacement curves were analysed to obtain pIC50 values. Schild plots were fitted by linear regression to obtain slope and intercepts. pEC50 and pIC50 values were compared with that of human αCGRP using Dunnett's test with either a normal or repeated measures one-way ANOVA, as appropriate.

CGRP receptor [3] = biological target: T1, CGRP receptor; experiment: cAMP production in SK-N-MC cells; type: cell-based; parameters: relative expression levels of the receptors (endogenous vs. overexpressed); endogenous in cells; host or cells: SK-N-MC cells (ECACC clone; ATCC clone for [Cys5]-CGRP)
Procedure: (§2) Production of cAMP in SK-N-MC cells for all analogues except [[…]]-hαCGRP was by a radioreceptor assay, as described previously (Poyner et al., [1998]). […] For [[…]]-hαCGRP, a different clone of SK-N-MC cells was used and cAMP production was measured via AlphaScreen (Perkin Elmer, Wellesley, MA, USA), as described previously ([…] et al., [2010]). This assay was also used to investigate the action of all derivatives at the AMY1(a) receptor and other experiments using Cos 7 cells. […] GraphPad Prism 5.00 or 6.00 (GraphPad Software Inc., San Diego, CA, USA) was used for data fitting. Concentration-response curves were fitted to a sigmoidal function with Hill slope constrained to unity to obtain pEC50 and maximum responses (Emax) values. Displacement curves were analysed to obtain pIC50 values. Schild plots were fitted by linear regression to obtain slope and intercepts. pEC50 and pIC50 values were compared with that of human αCGRP using Dunnett's test with either a normal or repeated measures one-way ANOVA, as appropriate.

CGRP receptor [4] = biological target: T1, CGRP receptor; experiment: β-arrestin 2 translocation in CHO-K1 cells (PathHunter eXpress); type: cell-based; parameters: host or cells: CHO-K1 (PathHunter eXpress β-arrestin kit)
Procedure: (§3) GraphPad Prism 5.00 or 6.00 (GraphPad Software Inc., San Diego, CA, USA) was used for data fitting. Concentration–response curves were fitted to a sigmoidal function with Hill slope constrained to unity to obtain pEC50 and maximum responses (Emax) values. Displacement curves were analysed to obtain pIC50 values. Schild plots were fitted by linear regression to obtain slope and intercepts. pEC50 and pIC50 values were compared with that of human αCGRP using Dunnett's test with either a normal or repeated measures one-way ANOVA, as appropriate.

CGRP receptor [5] = biological target: T1, CGRP receptor; experiment: Antagonism of CGRP-stimulated cAMP production in SK-N-MC cells; type: cell-based; parameters: relative expression levels of the receptors (endogenous vs. overexpressed); endogenous in cells; host or cells: SK-N-MC cells (ECACC clone; ATCC clone for [Cys5]-CGRP)
Procedure: as §2

CGRP receptor [6] = biological target: T1, CGRP receptor; experiment: Displacement of 125I-CGRP binding to SK-N-MC cell membranes; parameters: relative expression levels of the receptors (endogenous vs. overexpressed); endogenous in cells; host or cells: SK-N-MC cells (ECACC clone; ATCC clone for [Cys5]-CGRP); settings: 125I-CGRP binding, SK-N-MC membranes; listed as [Cys^5]-CGRP
Procedure: as §3

AMY1(a) receptor = biological target: T2, AMY1(a) receptor (Homo sapiens, UniProt O60894+P30988); experiment: cAMP production in Cos 7 cells via the AMY1(a) receptor; type: cell-based
T2 construct: HA; expressed in transfected cells; host or cells: Cos 7
T2 sequence (P30988 25-474): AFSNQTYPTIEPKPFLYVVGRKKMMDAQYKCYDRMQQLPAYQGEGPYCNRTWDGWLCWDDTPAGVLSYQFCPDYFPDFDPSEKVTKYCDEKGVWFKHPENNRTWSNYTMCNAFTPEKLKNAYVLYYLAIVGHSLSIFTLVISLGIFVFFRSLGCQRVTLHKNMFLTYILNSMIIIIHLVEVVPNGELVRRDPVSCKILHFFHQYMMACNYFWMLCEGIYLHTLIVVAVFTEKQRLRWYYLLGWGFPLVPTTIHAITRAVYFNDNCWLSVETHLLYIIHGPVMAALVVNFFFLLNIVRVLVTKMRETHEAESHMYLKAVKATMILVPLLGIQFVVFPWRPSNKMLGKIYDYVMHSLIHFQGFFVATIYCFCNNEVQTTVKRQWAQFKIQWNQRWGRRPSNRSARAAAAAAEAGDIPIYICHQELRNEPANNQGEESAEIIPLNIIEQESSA
T2 sequence (O60894 27-148): as the sequence (O60894 27-148) above
Procedure: as §1

[7] = radioreceptor assay, approx. 10 min, means ± SEM, n = 3–6, listed as [Cys^6]
[8] = 2 h stimulation, means ± SEM, n = 3, listed as [Cys^6]
[9] = AlphaScreen, means ± SEM, n = 3–6, listed as [Cys^6]

Molecule | stimulation of cAMP production [1] | Emax (CGRP receptor [2]) [%] | decrease in potency on cAMP compared with CGRP (CGRP receptor [3]; SK-N-MC cells) | stimulation of cAMP production (CGRP receptor [3]; SK-N-MC cells, [Asp6] and [Lys6] at concentrations of up to 10 μM) | cAMP (SK-N-MC) Emax (% CGRP) CGRP analogue (CGRP receptor [3]; [7]) | cAMP (SK-N-MC) pEC50 CGRP analogue (CGRP receptor [3]; [7]) | β-Arrestin (CHO-K1) Emax (% CGRP) CGRP analogue (CGRP receptor [4]; [8]) | β-Arrestin (CHO-K1) pEC50 CGRP analogue (CGRP receptor [4]; [8]) | Emax (CGRP receptor [4]; CHO-K1, CHO-K1 cells, compared with CGRP, read-out: reduction of Emax, β-arrestin 2 translocation) [%] | decrease in potency for β-arrestin 2 translocation compared with CGRP (CGRP receptor [4]; CHO-K1 cells) | stimulation of β-arrestin 2 translocation (CGRP receptor [4]; CHO-K1 cells, [Asp6] and [Lys6] at concentrations of up to 1 μM) | slope of Schild plot (CGRP receptor [5]; listed as [Cys^5]-CGRP) | slope of Schild plot (CGRP receptor [5]; listed as [Cys^6]-CGRP) | decrease in affinity compared with CGRP (CGRP receptor [6]) [fold] | fold less potent than CGRP, cAMP at AMY1(a) receptor (AMY1(a) receptor) [fold] | stimulation of cAMP production at AMY1(a) receptor (AMY1(a) receptor) | AMY1(a) receptor-stimulated cAMP Emax (% CGRP) CGRP analogue (AMY1(a) receptor; [9]) | AMY1(a) receptor-stimulated cAMP pEC50 CGRP analogue (AMY1(a) receptor; [9])
[Val^6]-CGRP: CGRP analogue substituted at position 6, from Heino et al., 1998 (ACDTAVCVTHRLAGLLSRSGGVVKNNFVPTNVGSKAF-NH2; disulfide 2-7; ends not checked; UniProt P06881 83-119, looked up, variant T6V) | inactive |  |  |  |  |  |  |  |  |  |  |  |  |  |  |  |  | 
CC(C)C[C@H](NC(=O)CNC(=O)[C@H](C)NC(=O)[C@H](CC(C)C)NC(=O)[C@H](CCCNC(=N)N)NC(=O)[C@H](Cc1c[nH]cn1)NC(=O)[C@@H](NC(=O)[C@@H](NC(=O)[C@@H]1CSSC[C@H](NC(=O)[C@@H](N)CS)C(=O)N[C@@H](CC(=O)O)C(=O)N[C@@H]([C@@H](C)O)C(=O)N[C@@H](C)C(=O)N[C@@H]([C@@H](C)O)C(=O)N1)C(C)C)[C@@H](C)O)C(=O)N[C@@H](CC(C)C)C(=O)N[C@@H](CO)C(=O)N[C@@H](CCCNC(=N)N)C(=O)N[C@@H](CO)C(=O)NCC(=O)NCC(=O)N[C@H](C(=O)N[C@H](C(=O)N[C@@H](CCCCN)C(=O)N[C@@H](CC(N)=O)C(=O)N[C@@H](CC(N)=O)C(=O)N[C@@H](Cc1ccccc1)C(=O)N[C@H](C(=O)N1CCC[C@H]1C(=O)N[C@H](C(=O)N[C@@H](CC(N)=O)C(=O)N[C@H](C(=O)NCC(=O)N[C@@H](CO)C(=O)N[C@@H](CCCCN)C(=O)N[C@@H](C)C(=O)N[C@@H](Cc1ccccc1)C(N)=O)C(C)C)[C@@H](C)O)C(C)C)C(C)C)C(C)C [[Cys^1]] |  | 90 ± 8 | over 100 fold | unable to stimulate | Undetectable | Undetectable | Undetectable | Undetectable | 45 | ninefold | unable to stimulate | 1.33 ± 0.30 | 0.98 ± 0.20 | > 270 | 75 | no consistent stimulations | Undetectable | Undetectable

From paper PMC3904261 (British Journal of Pharmacology, 2013)
